# Data from paper PMC11436758, “Computer-aided drug design to generate a unique antibiotic family” (Nature Communications, 2024).
# How the values were obtained:
# Experiment in all cases: MIC, clinical and laboratory strains
# Assay type in all cases: cell-based
# [1] = tested on: S. aureus (MRSA)
# Protocol: (§1) The medium employed for the assay was Mueller Hinton II Broth (MHB II; Becton-Dickinson, Sparks, MD, USA). Agar plates used for the organisms were trypticase soy agar plus 5% sheep blood (BD; Sparks, MD, USA). MIC assay plates were prepared using the CLSI broth microdilution procedure. Automated liquid handlers (Multidrop 384, Biomek 2000 and Biomek FX) were used to conduct serial dilutions and liquid transfers. A standardized inoculum of each organism was prepared per CLSI methods. Suspensions were prepared to equal a 0.5 McFarland standard, followed by a 1:20 dilution in test media. The inocula were dispensed into sterile reservoirs divided by length (Beckman Colter) and the Biomek 2000 was used to inoculate the plates. Daughter plates were placed on the Biomek 2000 work surface in reverse orientation so that inoculation took place from low to high drug concentration. The Biomek 2000 delivered 10 μL of the diluted suspension into each well. These inoculations yielded a final cell concentration in the daughter plates of ~5 × 10^5 colony-forming units/mL in each well. The wells of the daughter plates ultimately contained 185 μL of broth, 5 μL of drug solution, and 10 μL of bacterial inoculum. Plates were covered with a sterile lid on the top plate, placed in plastic bags, and incubated at 35 °C for ~18 h. The microplates were viewed from the bottom using a plate viewer and the MIC was read. The MIC was recorded as the lowest concentration of drug that inhibited visible growth of the organism.
# [2] = tested on: S. aureus (MSSA)
# Protocol: as §1
# [3] = tested on: S. aureus (VISA)
# Protocol: as §1
# [4] = tested on: S. epidermidis (VISE)
# Protocol: as §1
compound,measurement,setting,value
CC(C)c1cc(Cl)ccc1-c1cc(-c2nnn[nH]2)c(-c2ccc(Cl)cc2C(C)C)s1 [DNM0547],MIC,[1]; S. aureus (MRSA) 2296,1 µg/mL
same,MIC,[1]; S. aureus (MRSA) 2297,2 µg/mL
same,MIC,[1]; S. aureus (MRSA) 3880,1 µg/mL
same,MIC,[1]; S. aureus (MRSA) 5373,1 µg/mL
same,MIC,[1]; S. aureus (MRSA) 5666,1 µg/mL
same,MIC,[1]; S. aureus (MRSA) 5702,1 µg/mL
same,MIC,[1]; S. aureus (MRSA) 5999,1 µg/mL
same,MIC,[1]; S. aureus (MRSA) 6165,1 µg/mL
same,MIC,[1]; S. aureus (MRSA) 6169,1 µg/mL
same,MIC,[1]; S. aureus (MRSA) 6174,1 µg/mL
same,MIC,[1]; S. aureus (MRSA) 6311,1 µg/mL
same,MIC,[1]; S. aureus (MRSA) 6312,2 µg/mL
same,MIC,[1]; S. aureus (MRSA) 6313,1 µg/mL
same,MIC,[1]; S. aureus (MRSA) 6315,1 µg/mL
same,MIC,[1]; S. aureus (MRSA) 6320,1 µg/mL
same,MIC,[1]; S. aureus (MRSA) 6498,2 µg/mL
same,MIC,[1]; S. aureus (MRSA) 6501,2 µg/mL
same,MIC,[1]; S. aureus (MRSA) 6505,1 µg/mL
same,MIC,[1]; S. aureus (MRSA) 6506,2 µg/mL
same,MIC,[1]; S. aureus (MRSA) NRS382/2119,1 µg/mL
same,MIC,[1]; S. aureus (MRSA) NRS383/2120,1 µg/mL
same,MIC,[1]; S. aureus (MRSA) NRS384/2011,2 µg/mL
same,MIC,[2]; S. aureus (MSSA) 2127,1 µg/mL
same,MIC,[2]; S. aureus (MSSA) 6167,2 µg/mL
same,MIC,[2]; S. aureus (MSSA) 6168,1 µg/mL
same,MIC,[2]; S. aureus (MSSA) 6170,1 µg/mL
same,MIC,[2]; S. aureus (MSSA) 6316,2 µg/mL
same,MIC,[2]; S. aureus (MSSA) 6317,1 µg/mL
same,MIC,[2]; S. aureus (MSSA) 6318,1 µg/mL
same,MIC,[2]; S. aureus (MSSA) 6499,2 µg/mL
same,MIC,[2]; S. aureus (MSSA) 6500,1 µg/mL
same,MIC,[2]; S. aureus (MSSA) 6502,1 µg/mL
same,MIC,[3]; S. aureus (VISA) 1724,2 µg/mL
same,MIC,[3]; S. aureus (VISA) 2012,2 µg/mL
same,MIC,[3]; S. aureus (VISA) 2013,2 µg/mL
same,MIC,[3]; S. aureus (VISA) 2014,2 µg/mL
same,MIC,[3]; S. aureus (VISA) 2015,2 µg/mL
same,MIC,[3]; S. aureus (VISA) 2016,2 µg/mL
same,MIC,[3]; S. aureus (VISA) 2017,2 µg/mL
same,MIC,[3]; S. aureus (VISA) 2018,2 µg/mL
same,MIC,[3]; S. aureus (VISA) 2019,1 µg/mL
same,MIC,[3]; S. aureus (VISA) 2123,2 µg/mL
same,MIC,[3]; S. aureus (VISA) NRS1/1723,2 µg/mL
same,MIC,[4]; S. epidermidis (VISE) 2020,8 µg/mL
same,MIC,[4]; S. epidermidis (VISE) 2021,1 µg/mL
same,MIC,[4]; S. epidermidis (VISE) 2022,2 µg/mL
same,MIC,[4]; S. epidermidis (VISE) 2023,4 µg/mL
same,MIC,[4]; S. epidermidis (VISE) 2024,32 µg/mL
same,MIC,[4]; S. epidermidis (VISE) 2025,4 µg/mL
